# Experimental data reported in PubChem BioAssay AID1259407 (Chemical Carcinogenesis Research Information System (CCRIS), 2018).
# Calls of active or inactive are those of the source. How the calls were made is not given here.
# System: CCRIS mutagenicity, Ames/micronucleus/aberration tests
# Test: CCRIS mutagenicity studies
# [1] = Test System: AMES SALMONELLA TYPHIMURIUM, Strain/Indicator: TA98, Metabolic Activation: NONE, Method: STANDARD PLATE
# [2] = Test System: AMES SALMONELLA TYPHIMURIUM, Strain/Indicator: TA98, Metabolic Activation: RAT, LIVER, S-9, AROCLOR 1254, Method: STANDARD PLATE
# [3] = Test System: AMES SALMONELLA TYPHIMURIUM, Strain/Indicator: TA100, Metabolic Activation: NONE, Method: STANDARD PLATE
# [4] = Test System: AMES SALMONELLA TYPHIMURIUM, Strain/Indicator: TA100, Metabolic Activation: RAT, LIVER, S-9, AROCLOR 1254, Method: STANDARD PLATE
# [5] = Test System: AMES SALMONELLA TYPHIMURIUM, Strain/Indicator: TA1535, Metabolic Activation: NONE, Method: STANDARD PLATE
# [6] = Test System: AMES SALMONELLA TYPHIMURIUM, Strain/Indicator: TA1535, Metabolic Activation: RAT, LIVER, S-9, AROCLOR 1254, Method: STANDARD PLATE
# [7] = Test System: AMES SALMONELLA TYPHIMURIUM, Strain/Indicator: TA1537, Metabolic Activation: NONE, Method: STANDARD PLATE
# [8] = Test System: AMES SALMONELLA TYPHIMURIUM, Strain/Indicator: TA1537, Metabolic Activation: RAT, LIVER, S-9, AROCLOR 1254, Method: STANDARD PLATE
# [9] = Test System: AMES SALMONELLA TYPHIMURIUM, Strain/Indicator: TA1538, Metabolic Activation: NONE, Method: STANDARD PLATE
# [10] = Test System: AMES SALMONELLA TYPHIMURIUM, Strain/Indicator: TA1538, Metabolic Activation: RAT, LIVER, S-9, AROCLOR 1254, Method: STANDARD PLATE
# [11] = Test System: AMES SALMONELLA TYPHIMURIUM, Strain/Indicator: TA98, Metabolic Activation: NONE, Method: PREINCUBATION
# [12] = Test System: AMES SALMONELLA TYPHIMURIUM, Strain/Indicator: TA98, Metabolic Activation: RAT, LIVER, S-9, AROCLOR 1254, Method: PREINCUBATION
# [13] = Test System: AMES SALMONELLA TYPHIMURIUM, Strain/Indicator: TA100, Metabolic Activation: NONE, Method: PREINCUBATION
# [14] = Test System: AMES SALMONELLA TYPHIMURIUM, Strain/Indicator: TA100, Metabolic Activation: RAT, LIVER, S-9, AROCLOR 1254, Method: PREINCUBATION
compound,measurement,setting,value
Nc1cc([N+](=O)[O-])c(N)cc1F,mutagenic call,[1],active; positive
same,mutagenic call,[2],active; positive
same,mutagenic call,[3],inactive; negative
same,mutagenic call,[4],active; positive
same,mutagenic call,[5],inactive; negative
same,mutagenic call,[6],inactive; negative
same,mutagenic call,[7],active; positive
same,mutagenic call,[8],active; positive
same,mutagenic call,[9],active; positive
same,mutagenic call,[10],active; positive
Cc1cccs1,mutagenic call,[11],inactive; negative
same,mutagenic call,[12],inactive; negative
same,mutagenic call,[13],inactive; negative
same,mutagenic call,[14],inactive; negative
same,mutagenic call,"Test System: AMES SALMONELLA TYPHIMURIUM, Strain/Indicator: TA102, Metabolic Activation: NONE, Method: PREINCUBATION",inactive; negative
same,mutagenic call,"Test System: AMES SALMONELLA TYPHIMURIUM, Strain/Indicator: TA102, Metabolic Activation: RAT, LIVER, S-9, AROCLOR 1254, Method: PREINCUBATION",inactive; negative
O=Cc1cccc2cccnc12,mutagenic call,[1],inactive; negative
same,mutagenic call,[2],inactive; negative
same,mutagenic call,[3],inactive; negative
same,mutagenic call,[4],active; positive
same,mutagenic call,[5],inactive; negative
same,mutagenic call,[6],inactive; negative
same,mutagenic call,[7],inactive; negative
same,mutagenic call,[8],inactive; negative
CN(C)c1ccc(N=Nc2cccnc2)cc1,mutagenic call,[1],inactive; negative
same,mutagenic call,[2],inactive; negative
same,mutagenic call,[3],inactive; negative
same,mutagenic call,[4],inactive; negative
same,mutagenic call,[5],inactive; negative
same,mutagenic call,[6],inactive; negative
same,mutagenic call,[7],inactive; negative
same,mutagenic call,[8],inactive; negative
same,mutagenic call,[9],inactive; negative
same,mutagenic call,[10],inactive; negative
Nc1c(N=Nc2ccc(-c3ccc(NN=C4C=CC(=O)C=C4)cc3)cc2)c(S(=O)(=O)O)cc2c1C(=O)/C(=N/Nc1ccccc1)C(S(=O)(=O)O)=C2,mutagenic call,"Test System: AMES SALMONELLA TYPHIMURIUM, Strain/Indicator: TA98, Metabolic Activation: HAMSTER, LIVER, S-9, AROCLOR 1254 (10%), Method: PREINCUBATION",inactive; negative
same,mutagenic call,[11],inactive; negative
same,mutagenic call,[1],inactive; negative
same,mutagenic call,"Test System: AMES SALMONELLA TYPHIMURIUM, Strain/Indicator: TA98, Metabolic Activation: RAT, LIVER, S-9, AROCLOR 1254 (10%), Method: PREINCUBATION",inactive; negative
same,mutagenic call,"Test System: AMES SALMONELLA TYPHIMURIUM, Strain/Indicator: TA98, Metabolic Activation: RAT, LIVER, S-9, PHENOBARBITAL, Method: STANDARD PLATE",inactive; negative
same,mutagenic call,"Test System: AMES SALMONELLA TYPHIMURIUM, Strain/Indicator: TA100, Metabolic Activation: HAMSTER, LIVER, S-9, AROCLOR 1254 (10%), Method: PREINCUBATION",inactive; negative
same,mutagenic call,[13],inactive; negative
same,mutagenic call,[3],inactive; negative
same,mutagenic call,"Test System: AMES SALMONELLA TYPHIMURIUM, Strain/Indicator: TA100, Metabolic Activation: RAT, LIVER, S-9, AROCLOR 1254 (10%), Method: PREINCUBATION",inactive; negative
same,mutagenic call,"Test System: AMES SALMONELLA TYPHIMURIUM, Strain/Indicator: TA100, Metabolic Activation: RAT, LIVER, S-9, PHENOBARBITAL, Method: STANDARD PLATE",inactive; negative
same,mutagenic call,"Test System: AMES SALMONELLA TYPHIMURIUM, Strain/Indicator: TA1535, Metabolic Activation: HAMSTER, LIVER, S-9, AROCLOR 1254 (10%), Method: PREINCUBATION",active; positive
same,mutagenic call,"Test System: AMES SALMONELLA TYPHIMURIUM, Strain/Indicator: TA1535, Metabolic Activation: NONE, Method: PREINCUBATION",inactive; negative
same,mutagenic call,"Test System: AMES SALMONELLA TYPHIMURIUM, Strain/Indicator: TA1535, Metabolic Activation: RAT LIVER, S-9, AROCLOR 1254 (10%), Method: PREINCUBATION",inactive; negative
same,mutagenic call,"Test System: AMES SALMONELLA TYPHIMURIUM, Strain/Indicator: TA1535, Metabolic Activation: RAT, LIVER, S-9, AROCLOR 1254 (10%), Method: PREINCUBATION",active; positive
same,mutagenic call,"Test System: AMES SALMONELLA TYPHIMURIUM, Strain/Indicator: TA1537, Metabolic Activation: HAMSTER, LIVER, S-9, AROCLOR 1254 (10%), Method: PREINCUBATION",inactive; negative
same,mutagenic call,"Test System: AMES SALMONELLA TYPHIMURIUM, Strain/Indicator: TA1537, Metabolic Activation: NONE, Method: PREINCUBATION",inactive; negative
same,mutagenic call,"Test System: AMES SALMONELLA TYPHIMURIUM, Strain/Indicator: TA1537, Metabolic Activation: RAT, LIVER, S-9, AROCLOR 1254 (10%), Method: PREINCUBATION",inactive; negative
CC(C)c1ccc(/C=C/c2ccc(N)cc2)cc1,mutagenic call,[1],inactive; negative
same,mutagenic call,"Test System: AMES SALMONELLA TYPHIMURIUM, Strain/Indicator: TA98, Metabolic Activation: RAT, LIVER, S9, AROCLOR, Method: STANDARD PLATE",active; positive
same,mutagenic call,[3],inactive; negative
same,mutagenic call,"Test System: AMES SALMONELLA TYPHIMURIUM, Strain/Indicator: TA100, Metabolic Activation: RAT, LIVER, S9, AROCLOR, Method: STANDARD PLATE",active; positive
c1ccc(N2CCNCC2)cc1,mutagenic call,"Test System: AMES SALMONELLA TYPHIMURIUM, Strain/Indicator: TA97, Metabolic Activation: HAMSTER, LIVER, S-9, AROCLOR 1254, Method: PREINCUBATION",inactive; negative
same,mutagenic call,"Test System: AMES SALMONELLA TYPHIMURIUM, Strain/Indicator: TA97, Metabolic Activation: NONE, Method: PREINCUBATION",inactive; negative
same,mutagenic call,"Test System: AMES SALMONELLA TYPHIMURIUM, Strain/Indicator: TA97, Metabolic Activation: RAT, LIVER, S-9, AROCLOR 1254, Method: PREINCUBATION",inactive; negative
same,mutagenic call,"Test System: AMES SALMONELLA TYPHIMURIUM, Strain/Indicator: TA98, Metabolic Activation: HAMSTER, LIVER, S-9, AROCLOR 1254, Method: PREINCUBATION",inactive; negative
same,mutagenic call,[11],inactive; negative
same,mutagenic call,[12],inactive; negative
same,mutagenic call,"Test System: AMES SALMONELLA TYPHIMURIUM, Strain/Indicator: TA100, Metabolic Activation: HAMSTER, LIVER, S-9, AROCLOR 1254, Method: PREINCUBATION",inactive; negative
same,mutagenic call,[13],inactive; negative
same,mutagenic call,[14],inactive; negative
CCCCN(CCC)N=O,mutagenic call,"Test System: AMES SALMONELLA TYPHIMURIUM, Strain/Indicator: TA100, Metabolic Activation: RAT, LIVER, S-9, KC500 OR PHENOBARBITAL, Method: LIQUID SUSPENSION",active; positive
same,mutagenic call,"Test System: MOUSE LYMPHOMA, Strain/Indicator: L5178Y (TK+/TK-), Metabolic Activation: RAT, LIVER, S-9, AROCLOR 1254, Method: SUSPENSION/PLATE",active; positive
C[C@]12CC[C@@H]3c4cc(O)c(O)cc4CC[C@H]3[C@@H]1CC[C@@H]2O,mutagenic call,"End Point: In vitro micronucleus, Test System: Human lymphocytes, Metabolic Activation: None",active; positive only at 10 ug/ml in cytochalasin block micronuclei; no dose response
same,mutagenic call,"Test System: Ames Salmonella typhimurium, Strain/Indicator: TA98, Metabolic Activation: None, Method: Standard plate",inactive; negative
same,mutagenic call,"Test System: Ames Salmonella typhimurium, Strain/Indicator: TA98, Metabolic Activation: Rat, liver, S-9, Method: Standard plate",inactive; negative
same,mutagenic call,"Test System: Ames Salmonella typhimurium, Strain/Indicator: TA100, Metabolic Activation: None, Method: Standard plate",inactive; negative
same,mutagenic call,"Test System: Ames Salmonella typhimurium, Strain/Indicator: TA100, Metabolic Activation: Rat, liver, S-9, Method: Standard plate",inactive; negative
